{
  "source": "patent US8975259B2",
  "about": "“Compositions and methods for inhibiting G protein signaling” (University of Rochester, priority 2007, dated 2015)",
  "key": {"[1]": {"test_system": "fMLP-dependent Ca2+ release in differentiated HL60 cells", "test": "fMLP-dependent Ca2+ release in fura-2 loaded DMSO-differentiated HL60 cells", "type": "cell-based, human", "details": "10 μM compound, 250 nM fMLP, result in words", "experimental": "(§1) Cells were pretreated with DMSO or 10 μM compounds for 5 min prior to stimulation with 250 nM fMLP. […] Normalized peak Ca^2+ responses were pooled from three independent experiments each (mean±SEM). Cells were pretreated with DMSO (▪) or compounds (▴) for 5 min prior to stimulation. FIG. 5C is the same as A except 10 μM M201 was tested. […] Differentiated HL60 cells were treated with 10 μM compound prior to stimulation with 250 nM fMLP. Translocation of endogenous GRK2 was determined by Western blotting with a GRK2 antibody and quantitative chemiluminescence. Data are mean±SEM from 5 experiments, * P<0.05, **P<0.01 ANOVA. […] Differentiated HL60 cells stably over-expressing GFP-PHAkt were treated with 10 μM compound prior to stimulation with 100 nM fMLP. Translocation of GFP-PHAkt to the membrane was determined by Western blotting with an anti-GFP antibody and quantitative chemiluminescence. Data are mean±SEM from 4 experiments. *** P<0.001 ANOVA. […] Differentiated HL60 cells were pretreated with 10 μM of compound prior to stimulation with 1 μM fMLP for 5 min. Levels of phosphorylated and total ERK were determined by Western blotting.\nCa^2+ fluxes were measured using two 35 mL cultures of differentiated HL-60 neutrophil cultures (0.2×10^6 cells/mL). Cells were cultured for three days with in DMSO\n(1.2%), washed in HSS and resuspended in 2 mL HBSS at a concentration of 7×10^s cells/mL. Addition of DMSO to the growth medium induces differentiation of these cells into morphologically and functionally mature neutrophils\n(Collins, et al. (1978) Proc. Natl. Acad. Sci. USA 75:2458; Collins, et al. (1979) J. Exp. Med. 149:969). Neutrophils were preloaded with fura-2 (1 μM), a fluorescent Ca^2+-sensitive indicator (Suh, et al. (1996) J. Biol. Chem. 271:32753), for 45 minutes, washed with HBSS and resuspended in 2 mL of indicator-free HBSS. An 140 μL aliquote of cells was added to a total of 2 mL HBSS. Fluorescence ratios were taken by dual excitation at 340 and 380 nm and emission at 510 nm. After a stable baseline was established, either DMSO or NSC119910 was added and incubated for 5 minutes. […]"}, "[2]": {"test_system": "ATP-dependent Ca2+ increase in differentiated HL-60 neutrophils", "test": "ATP-dependent Ca2+ increase in differentiated HL-60 neutrophils", "type": "cell-based, human", "details": "result in words", "experimental": "(Collins, et al. (1978) Proc. Natl. Acad. Sci. USA 75:2458; Collins, et al. (1979) J. Exp. Med. 149:969). Neutrophils were preloaded with fura-2 (1 μM), a fluorescent Ca^2+-sensitive indicator (Suh, et al. (1996) J. Biol. Chem. 271:32753), for 45 minutes, washed with HBSS and resuspended in 2 mL of indicator-free HBSS. An 140 μL aliquote of cells was added to a total of 2 mL HBSS. Fluorescence ratios were taken by dual excitation at 340 and 380 nm and emission at 510 nm. After a stable baseline was established, either DMSO or NSC119910 was added and incubated for 5 minutes. Subsequently, either fMLP or ATP agonists were added to activate release of Ca^2+ from intracellular stores."}, "[3]": {"test_system": "GRK2 translocation in differentiated HL60 cells", "test": "fMLP-dependent GRK2 translocation to membrane in differentiated HL60 cells", "type": "cell-based, human", "details": "10 μM compound, 250 nM fMLP; result in words", "experimental": "as §1"}, "[4]": {"test_system": "opioid-induced antinociception in mice", "test": "55° C. warm-water tail-flick antinociception", "type": "in vivo, mouse"}, "[5]": {"test_system": "human δ opioid receptor (hDOR-CHO cells)", "test": "Total inositol phosphate assay in hDOR-CHO cells", "type": "cell-based", "details": "DPDPE, Deltorphin II, M119 10 μM; naltrindole 100 μM; result in words", "experimental": "Chinese hamster ovary (CHO) cells stably expressing either the human κ (hKOR-CHO), δ (hDOR-CHO)(L. Toll, Stanford Research Institute, Palo Alto, Calif.) or μ (hMOR-CHO)(G. Uhl, National Institute on Drug Abuse, Baltimore, Md.) opioid receptor were used in the experiments. Cells in 6-well plates were labeled by adding 4 μCi of [^3H]inositol for 24 hr in inositol-free F-10 media, without serum. After labeling, LiCl was added directly to the labeling media at a final concentration of 10 mM. Ligands or peptides were added at the same time. The final volume of each well was 1 mL. The plates were put back in to the incubator at 37° C. for 30 min after which time the medium was aspirated and the plates were washed twice with 1× PBS. Ice-cold 50 mM formic acid, 1 mL, was added to the plates which were placed in the cold room at 4° C. for 30 min. After the incubation, the contents of the plates were applied to Dowex AG1-X8 columns and allowed to flow all the way through the column. The columns were washed, twice each, with 50 and 100 mM formic acid, for a total of four washes, followed by elution of the IP-containing fraction with 3 mL of 1.2 M ammonium formate/0.1 M formic acid. The eluted fraction was mixed with Scintisafe scintillation fluid, for high salt, and counted. The data are represented as the fold increase over control in total inositol phospates. All experiments were repeated three times and performed in duplicate. Control cells for each experiment were labeled with [^3H]inositol and LiCl, in the same manner as the treatment groups."}, "[6]": {"test_system": "acute morphine antinociceptive tolerance in mice", "test": "Acute morphine antinociceptive tolerance (repeated i.c.v. dosing, tail-flick)", "type": "in vivo, mouse"}, "N-type Ca^2+ channels": {"test_system": "N-type Ca^2+ channels", "test": "Norepinephrine-dependent inhibition of N-type Ca2+ channels in rat superior cervical ganglion neurons (patch clamp)", "type": "cell-based", "details": "initial analysis; result in words", "experimental": "Norepinephrine inhibits N-type Ca^2+ channels through a Gβγ dependent mechanism in SCG neurons and activates GIRK channels when they are heterologously expressed. Neurons are pretreated with varying concentrations of compounds (either in the bath or included in the patch pipette), and NE dependent inhibition of N-type Ca^2+ channels are measured in the whole cell patch clamp configuration. […] This voltage dependence is diagnostic of Gβγ-mediated modulation. The “facilitation” ratio of the postpulse current to the prepulse current (during which inhibition is strong) provides a quantitative measure of the degree of Gβγ modulation. Uninhibited currents generally have a facilitation ratio around 1 so cells pretreated with compounds that inhibit Gβγ interactions with the channel causes the facilitation ratio to approach 1. The effects on responses to other receptors such as transfected μ-opioid receptors or endogenous M4 muscarinic receptors are also examined. GIRK channel regulation is assessed by microinjecting GIRK1/2 subunits in SCG neurons and measuring K^+ channel regulation by NE at varying concentrations of compound. Basal K^+ channel activity and Ca^2+ channel activity is assessed to look for non-specific effects of Gβγ blockers. […]"}, "[7]": {"test_system": "opioid-induced antinociception in mice", "details": "M119 100 nmol i.c.v. with morphine i.c.v.; Bonacci et al., 2006; cited from earlier work"}, "[8]": {"details": "250 mg/kg/day for two weeks, delivered by the NCI; cited from earlier work"}},
  "note": "Values joined by “and” are separate entries in the source; they are usually repeats but may differ in a detail not shown here. Equal values may be shown once. “Also recorded” adds a separate entry of the source.",
  "data": [
    {"smiles": "O=C(O)C1CCCCC1c1c2ccc(=O)c(O)c-2oc2c(O)c(O)ccc12", "note": "(stereo not drawn) [Compound M119, cyclohexanecarboxylic acid, 2-(4,5,6-trihydroxy-3-oxo-3H-xanthen-9-yl)-(9cl)]", "values": [
      {"measurement": "effect on fMLP-induced Ca^2+ increase", "setting": "[1]", "value": "attenuated"},
      {"measurement": "effect on fMLP-induced Ca^2+ increase", "setting": "[1]; listed as NSC119910", "value": "suppressed; also recorded: block"},
      {"measurement": "effect on ATP-induced [Ca^2+] increase", "setting": "[2]", "value": "not significantly suppressed"},
      {"measurement": "effect on fMLP-dependent GRK2 translocation to the membrane fraction", "setting": "[3]", "value": "substantially inhibited"},
      {"measurement": "ED50 of Deltorphin II in the presence of M119", "setting": "[4]; M119 100 nmol i.c.v.", "value": 11, "unit": "nmol"},
      {"measurement": "ED50 of DAMGO co-administered with M119", "setting": "[4]; mouse, in vivo", "value": 0.01, "unit": "nmol"},
      {"measurement": "ED50 of DPDPE with M119", "setting": "[4]; mouse, in vivo", "value": 5.4, "unit": "nmol"},
      {"measurement": "ED50 of U50,488 with M119", "setting": "[4]; mouse, in vivo", "value": 17, "unit": "nmol"},
      {"measurement": "ED50 of morphine co-administered with the compound", "setting": "[4]; mouse, in vivo", "value": "0.065 nmol and 0.069 (0.023-0.201) nmol"},
      {"measurement": "Percent Antinociception ± S.E.M.", "setting": "[4]; mouse, in vivo", "value": "100 ± 0.0% and 79.3 ± 9.1% and 64.4 ± 10.0% and 55.3 ± 12.7%"},
      {"measurement": "effect of compound alone on baseline antinociception", "setting": "[4]; mouse, in vivo", "value": "no effect"},
      {"measurement": "leftward shift in the DAMGO dose-response curve", "setting": "[4]; mouse, in vivo", "value": 7, "unit": "fold"},
      {"measurement": "shift in the U50,488 dose-response curve", "setting": "[4]; mouse, in vivo", "value": 2, "unit": "fold"},
      {"measurement": "shift of morphine ED50 / increase in analgesic potency of morphine", "setting": "[4]; mouse, in vivo", "value": 11, "unit": "fold"},
      {"measurement": "leftward shift of systemic morphine ED50", "setting": "[4]; mouse, in vivo, 100 mg/kg", "value": 4, "unit": "fold"},
      {"measurement": "effect on IP generation over control treated cells", "setting": "[5]", "value": "no significant effect"},
      {"measurement": "ED50 of morphine co-administered with M119", "setting": "[6]; 6 hr", "value": 0.22, "unit": "nmol"},
      {"measurement": "ED50 of morphine co-administered with M119", "setting": "[6]; time 0", "value": 0.16, "unit": "nmol"},
      {"measurement": "effect on NE dependent inhibition of N-type Ca^2+ channels", "setting": "N-type Ca^2+ channels", "value": "unaffected"},
      {"measurement": "leftward shift / potentiation of morphine dose-response", "setting": "[7]", "value": 10, "unit": "fold"},
      {"measurement": "toxicity", "setting": "[8]", "value": "no reported overt evidence of toxicity"}
    ]}
  ]
}
